pIC50: −log10 of the molar value.
Key:
Assay type in all cases: cell-based
MDA-MB-468 = assay: Inhibition of proliferation of MDA-MB-468 cells by test compounds (CellTiter-Glo, 72 h); conditions: MDA-MB-468, 72 h incubation
Procedure: 3: Test method • (1) Cell plating: first, tumor cells MDA-MB-468 were cultured using a corresponding culture medium, trypsinized, centrifuged, resuspended for counting, adjusted to an appropriate concentration, and then plated on a 384-well plate. • (2) Co-incubation of the compounds and tumor cells: after the cells adhered to the wall, 100 nL of a diluted bioactive substance (test compound) was added to the cell culture plate using ECHO, the final concentration of DMSO in wells of the cell plate was 0.33%, and the incubation was performed in an incubator at 37°C with […] for 72 h. • (3) After the incubation was complete, 30 µL of a CTG reagent (CelltiterGlo kit) was added to each well. The culture was oscillated on a fast oscillator for 2 min, centrifuged at 1,000 rpm for 1 min, and kept away from light at room temperature for 30 min. The chemiluminescence signal value was read using an Envision instrument. • (4) Cell viability detection: IC50 was calculated using GraphPad Prism 8 software, and the IC50 of the compounds was obtained using the following nonlinear fitting formula (see Table 2): • 6. Y=Bottom+(Top-Bottom)/(1+10^((LogIC50-X)*HillSlope)) • 7. […] Table 2 Antiproliferative activity of test compounds on MDA-MB-468

SK-BR-3 = assay: Inhibition of proliferation of SK-BR-3 cells by compounds (CellTiter-Glo, 72 h); conditions: SK-BR-3, 72 h incubation
Procedure: 3: Test method (1) Cell plating: first, tumor cells SK-BR-3 were cultured using a corresponding culture medium, trypsinized, centrifuged, resuspended for counting, adjusted to an appropriate concentration, and then plated on a 384-well plate. (2) Co-incubation of the compounds and tumor cells: after the cells adhered to the wall, 100 nL of a diluted bioactive substance (test compound) was added to the cell culture plate using ECHO, the final concentration of DMSO in wells of the cell plate was 0.33%, and the incubation was performed in an incubator at 37°C with 5% CO2 for 72 h. (3) After the incubation was complete, 30 µL of a CTG reagent (CelltiterGlo kit) was added to each well. The culture was oscillated on a fast oscillator for 2 min, centrifuged at 1,000 rpm for 1 min, and kept away from light at room temperature for 30 min. The chemiluminescence signal value was read using an Envision instrument. (4) Cell viability detection: IC50 was calculated using GraphPad Prism 8 software, and the IC50 of the compounds was obtained using the following nonlinear fitting formula (see Table 1) : 1. Y=Bottom+(Top-Bottom)/(1+10^((LogIC50-X)*HillSlope)) 2. […] Table 1 Antiproliferative activity of test compounds on SK-BR-3

NCI-N87 = assay: Inhibition of proliferation of NCI-N87 cells by test compounds (CellTiter-Glo, 72 h); conditions: NCI-N87, 72 h incubation
Procedure: 3: Test method (1) Cell plating: first, tumor cells NCI-N87 were cultured using a corresponding culture medium, trypsinized, centrifuged, resuspended for counting, adjusted to an appropriate concentration, and then plated on a 384-well plate. (2) Co-incubation of the compounds and tumor cells: after the cells adhered to the wall, 100 nL of a diluted bioactive substance (test compound) was added to the cell culture plate using ECHO, the final concentration of DMSO in wells of the cell plate was 0.33%, and the incubation was performed in an incubator at 37°C with […] for 72 h. (3) After the incubation was complete, 30 µL of a CTG reagent (CelltiterGlo kit) was added to each well. The culture was oscillated on a fast oscillator for 2 min, centrifuged at 1,000 rpm for 1 min, and kept away from light at room temperature for 30 min. The chemiluminescence signal value was read using an Envision instrument. (4) Cell viability detection: IC50 was calculated using GraphPad Prism 8 software, and the IC50 of the compounds was obtained using the following nonlinear fitting formula (see Table 3) : 11. Y=Bottom+(Top-Bottom)/(1+10^((LogIC50-X)*HillSlope)) 12. […] Table 3 Antiproliferative activity of test compounds on cells NCI-N87

Compound	pIC50 (MDA-MB-468)	pIC50 (SK-BR-3)	pIC50 (NCI-N87)	pIC50 (MDA-MB-468; Homo sapiens, MDA-MB-468, 72 h)	pIC50 (SK-BR-3; Homo sapiens, SK-BR-3, 72 h)	pIC50 (NCI-N87; Homo sapiens, NCI-N87, 72 h)
C=Cc1c(F)cc2nc3c(c4c2c1CCC4NC(=O)C[C@@H](C)O)Cn1c-3cc2c(c1=O)COC(=O)[C@]2(O)CC (stereo partly drawn) [7-2, (R)-N-((1R,9S)-9-ethyl-5-fluoro-9-hydroxy-10,13-dioxo-4-vinyl-2,3,9,10,13,15-hexahydro-1H,12H-benzo[de]pyrano[3',4',6,7]indolizino[1,2-b]quinolin-1-yl)-3-hydroxybutanamide]	8.36	8.12	8.31	–	–	–
CC[C@@]1(O)C(=O)OCc2c1cc1n(c2=O)Cc2c-1nc1cc(F)c(OCC(F)(F)F)c3c1c2C(NC(=O)C[C@@H](C)O)CC3 (stereo partly drawn) [8-1, (R)-N-((1S,9S)-9-ethyl-5-fluoro-9-hydroxy-10,13-dioxo-4-(2,2,2-trifluoroethoxy)-2,3,9,10,13,15-hexahydro-1H,12H-benzo[de]pyrano[3',4',6,7]indolizino[1,2-b]quinolin-1-yl)-3-hydroxybutanamide]	7.89	7.36	8.38	–	–	–
CC[C@@]1(O)C(=O)OCc2c1cc1n(c2=O)Cc2c-1nc1cc(F)c(C)c3c1c2[C@H](NC(=O)C[C@@H](C)O)CCO3 [24-1, (R)-N-((1R,10S)-10-ethyl-6-fluoro-10-hydroxy-5-methyl-11,14-dioxo-2,3,10,11,14,16-hexahydro-1H,13H-oxepino[4,3,2-de]pyrano[3',4':6,7]indolizino[1,2-b]quinolin-1-yl)-3-hydroxybutanamide]	–	–	–	7.42	7.33	7.19
CC[C@@]1(O)C(=O)OCc2c1cc1n(c2=O)Cc2c-1nc1cc(F)c(C)c3c1c2[C@@H](NC(=O)C[C@@H](C)O)CCO3 [24-2, (R)-N-((1S,10S)-10-ethyl-6-fluoro-10-hydroxy-5-methyl-11,14-dioxo-2,3,10,11,14,16-hexahydro-1H,13H-oxepino[4,3,2-de]pyrano[3',4':6,7]indolizino[1,2-b]quinolin-1-yl)-3-hydroxybutanamide]	–	–	–	7.85	7.80	7.62
CC[C@@]1(O)C(=O)OCc2c1cc1n(c2=O)Cc2c-1nc1cc(F)c(C)c3c1c2[C@@H](NC(=O)[C@H](O)C1CC1)CCO3 [35-1, (R)-2-cyclopropyl-N-((1S,10S)-10-ethyl-6-fluoro-10-hydroxy-5-methyl-11,14-dioxo-2,3,10,11,14,16-hexahydro-1H,13H-oxepino[4,3,2-de]pyrano[3',4':6,7]indolizino[1,2-b]quinolin-1-yl)-2-hydroxyacetamide]	–	–	–	7.92	7.80	7.85
CC[C@@]1(O)C(=O)OCc2c1cc1n(c2=O)Cc2c-1nc1cc(F)c(C)c3c1c2[C@@H](NC(=O)[C@@H](O)C1CC1)CCO3 [35-2, (S)-2-cyclopropyl-N-((1S,10S)-10-ethyl-6-fluoro-10-hydroxy-5-methyl-11,14-dioxo-2,3,10,11,14,16-hexahydro-1H,13H-oxepino[4,3,2-de]pyrano[3',4':6,7]indolizino[1,2-b]quinolin-1-yl)-2-hydroxyacetamide]	–	–	–	8.05	8.05	8.00
CC[C@@H](O)CC(=O)N[C@H]1CCCc2c(C)c(F)cc3nc4c(c1c23)Cn1c-4cc2c(c1=O)COC(=O)[C@]2(O)CC [36-1, (R)-N-((1S,10S)-10-ethyl-6-fluoro-10-hydroxy-5-methyl-11,14-dioxo-1,2,3,4,10,11,14,16-octahydro-13H-cyclohepta[3',4':6,7]indolizino[1,2-b]quinolin-1-yl)-3-hydroxypentanamide]	7.85	8.04	8.07	–	–	–
CC[C@H](O)CC(=O)N[C@H]1CCCc2c(C)c(F)cc3nc4c(c1c23)Cn1c-4cc2c(c1=O)COC(=O)[C@]2(O)CC [36-2, (S)-N-((1S,10S)-10-ethyl-6-fluoro-10-hydroxy-5-methyl-11,14-dioxo-1,2,3,4,10,11,14,16-octahydro-13H-cyclohepta[3',4':6,7]indolizino[1,2-b]quinolin-1-yl)-3-hydroxypentanamide]	8.19	8.36	8.41	–	–	–
CC[C@@]1(O)C(=O)OCc2c1cc1n(c2=O)Cc2c-1nc1cc(F)c(C)c3c1c2[C@@H](NC(=O)C[C@@H](O)C(C)C)CCC3 [37-2, (R)-N-((1S,10S)-10-ethyl-6-fluoro-10-hydroxy-5-methyl-11,14-dioxo-1,2,3,4,10,11,14,16-octahydro-13H-cyclohepta[3',4':6,7]indolizino[1,2-b]quinolin-1-yl)-3-hydroxy-4-methylpentanamide]	8.18	8.18	8.49	–	–	–
(R)-2-cyclopropyl-N-((1S,10S)-5-cyclopropyl-10-ethyl-6-fluoro-10-hydroxy-11,14-dioxo-1,2,3,4,10,11,14,16-octahydro-13H-cyclohepta[3',4':6,7]indolizino[1,2-b]quinolin-1-yl)-2-hydroxyacetamide [33-1]	8.22	8.11	8.10	–	–	–
(R)-3-cyclopropyl-N-((1S,10S)-10-ethyl-6-fluoro-10-hydroxy-5-methyl-11,14-dioxo-1,2,3,4,10,11,14,16-octahydro-13H-cyclohepta[3',4':6,7]indolizino[1,2-b]quinolin-1-yl)-3-hydroxypropanamide [38-1]	7.89	7.92	8.12	–	–	–
(S)-2-cyclopropyl-N-((1S,10S)-5-cyclopropyl-10-ethyl-6-fluoro-10-hydroxy-11,14-dioxo-1,2,3,4,10,11,14,16-octahydro-13H-cyclohepta[3',4':6,7]indolizino[1,2-b]quinolin-1-yl)-2-hydroxyacetamide [33-2]	8.30	8.08	8.05	–	–	–
(S)-3-cyclopropyl-N-((1S,9S)-4-cyclopropyl-9-ethyl-5-fluoro-9-hydroxy-10,13-dioxo-2,3,9,10,13,15-hexahydro-1H,12H-benzo[d]pyrano[3',4':6,7]indolizino[1,2-b]quinolin-1-yl)-3-hydroxypropanamide [34-1]	8.40	8.29	8.22	–	–	–
(S)-3-cyclopropyl-N-((1S,10S)-10-ethyl-6-fluoro-10-hydroxy-5-methyl-11,14-dioxo-1,2,3,4,10,11,14,16-octahydro-13H-cyclohepta[3',4':6,7]indolizino[1,2-b]quinolin-1-yl)-3-hydroxypropanamide [38-2]	8.24	8.27	8.54	–	–	–
(S)-N-((1S,10S)-10-ethyl-6-fluoro-10-hydroxy-5-methyl-11,14-dioxo-1,2,3,4,10,11,14,16-octahydro-13H-cyclohepta[3',4':6,7]indolizino[1,2-b]quinolin-1-yl)-3-hydroxy-4-methylpentanamide [37-1]	7.72	7.72	8.07	–	–	–
